# Test results reported in US10344330B2, “Glatiramer acetate response biomarker mRNA potency assay” (Mylan Inc., priority 2013, dated 2019).
# B1: MBP: myelin basic protein, a negative control (protein, UniProt P02686 1-304, looked up)
# Myelin basic protein: MGNHAGKRELNAEKASTNSETNRGESEKKRNLGELSRTTSEDNEVFGEADANQNNGTSSQDTAVTDSKRTADPKNAWQDAHPADPGSRPHLIRLFSRDAPGREDNTFKDRPSESDELQTIQEDSAATSESLDVMASQKRPSQRHGSKYLATASTMDHARHGFLPRHRDTGILDSIGRFFGGDRGAPKRGSGKDSHHPARTAHYGSLPQKSHGRTQDENPVVHFFKNIVTPRTPPPSQGKGRGLSLSRFSWGAEGQRPGFGYGGRASDYKSAHKGFKGVDAQGTLSKIFKLGGRDSRSGSPMARR
# Test system: mouse IFN-γ mRNA in primary LN cells
# Assay: Validation: mouse IFN-γ mRNA by real-time PCR in LN cells of GA-immunized SJL/J mice (Example IV)
# Type: cell-based
# Settings: for IFN-γ mRNA Fold Change: normalized to GAPDH
# Description: Three experiments were conducted using one batch of GA (Mylan GMA). The primary LN cells were stimulated by incubation with 6 concentrations (0.3 to 20 μg/mL) of the GA for 6 hours at 37° C. Total RNA was isolated from LN cells stimulated with GA or controls. cDNA was synthesized from the RNA and the mRNA levels of seven mouse cytokines, IL-2, IL-4, IL-5, IL-10, IL-13, interferon (IFN)-γ and tumor necrosis factor (TNF)-α, were quantitatively measured by a real-time PCR method.
# Female SJL/J mice at 8-9 weeks of age were immunized by injection into four footpads using a 1 mL syringe with a 27-G, ½-inch needle. Each mouse received a total injection volume of 0.1 mL of GMA emulsified in CFA (about 10 μL into each of the front footpads and 40 μL into each of the hind footpads). Animals were immunized on Day 0. After injection, animals were placed back in their cages and housed ≤6 animals per cage.
# Immunized animals were sacrificed by cervical dislocation on Day 10 following immunization. […] After centrifugation at about 200×g for 10 minutes at 4° C., the cell pellet was re-suspended in 40 mL of DCCM-1 medium for cell counting. A Trypan blue exclusion method was used to determine the cell density of viable cells in the suspension. After cell counting, the LN cells were suspended in enriched DCCM-1 medium at density of 7.5×10^6 cells/mL. LN cells (0.12 mL) were plated into each well of 96-well tissue culture plates.
# Dilutions of GA (Mylan GMA) were prepared using enriched DCCM-1 medium as the diluent. GA dilutions (0.12 mL) were added in the assigned wells of 96-well tissue culture plates. The same volume of LN cells (0.12 mL) isolated from immunized animals was added to the assigned wells. A positive control and a negative control were always performed in the same assay by treating LN cells with 2.5 μg/mL ConA and 10 μg/mL MBP, respectively. The LN cells with mock stimulation protocols (enriched DCCM-1 medium) were used to monitor the background mRNA level of a cytokine. The plates were incubated at 37° C. in a humidified 5% CO2 incubator for 6 hr.
# At the end of incubation time, culture medium from stimulated cells was removed by aspiration and the cells were lysed using Qiagen or Promega lysis buffer. The lysate was transferred to an RNeasy Mini column (Qiagen) or wells of the SV 96 Binding Plate (Promega) for RNA isolation and cDNA synthesis. All tested samples were run in triplicate.
# The SV 96 Total RNA Isolation System (Promega; Cat. No. Z3505) was used for total RNA isolation. Assay procedures were carried out according to each manufacturer's protocol. RNA samples were stored at −70° C. until use. […] The assay procedure was carried out according to the manufacturer's protocol.
# The plate was centrifuged at 2000 rpm for 2 minutes at 4° C. to spin down the contents and eliminate air bubbles. Samples were prepared and run in a 96-well plate using a Life Technologies Real-Time PCR system (previously Applied Biosystems; Model No. 7500) according to the manufacturer's recommendation. The mix for the reference gene was prepared in the same way using the reference gene primer.
# A relative quantitation method was used to analyze changes in mIL-2, mIL-4, mIL-5, mIL-10, mIL-13, mIFN-γ and TNF-α expression in GA treated samples relative to the untreated control (Enriched DCCM-1 treated) samples using the following program:
# Levels of mouse cytokine amplicons were normalized to an internal probe level (GAPDH) from the same samples. The following equations were used to calculate the relative increase in response to GA stimulation compared to the control sample (Enriched DCCM1 sample): […]
molecule,measurement,setting,value
"Concanavalin A [ConA, reference compound]",IFN-γ mRNA Fold Change,"Experiment 1, 2.5 μg/mL",1.9 fold
same,IFN-γ mRNA Fold Change,"Experiment 2, 2.5 μg/mL",1.6 fold
same,IFN-γ mRNA Fold Change,"Experiment 3, 2.5 μg/mL",2.6 fold
"L-glutamic acid polymer with L-alanine, L-lysine and L-tyrosine, acetate (salt) [GA]",induction of IFN-γ mRNA (in words),"SJL/J, different concentrations of GA vs unstimulated LN cells",weak induction
same,induction of IFN-γ mRNA,"SJL/J, stimulation with 2.5 to 10 μg/mL GA, three experiments",≥ 2 fold
B1,IFN-γ mRNA Fold Change,"Experiment 1, 10 μg/mL",0.8 fold
same,IFN-γ mRNA Fold Change,"Experiment 2, 10 μg/mL",1.3 fold
same,IFN-γ mRNA Fold Change,"Experiment 3, 10 μg/mL",1.1 fold
same,IFN-γ mRNA expression level in response to MBP treatment,"SJL/J, MBP 10 μg/mL, all PCR runs",≤ 2 fold
